Assay results: patent US20130253202A1, “METHOD OF TREATING HEMATOLOGICAL CANCERS” (Niiki Pharma Inc., priority 2010, published 2013)

Assays:
[1] = test system: MV4-11 cells; details: Colado et al. 2008, Scatena et al. 2010; cited from earlier work
[2] = test system: WSU-DLCL2 cells; details: Aref et al. 1999, Levi et al. 2010; cited from earlier work
[3] = test system: Granta 519 cells; experiment: Anti-proliferation assay (Cell Titer-Glo) in Granta 519 mantle cell lymphoma cells; assay type: cell-based, human; details: 96 total hours of culture, read-out: IC50 in Granta 519 (inhibition of cell growth)
Experimental: (§1) To determine the antiproliferative activity of sodium trans-[tetrachlorobis(1H-indazole)ruthenate(III)] in human lymphoma tumor cell lines, anti-proliferation assays were conducted in the DoHH2 (follicular lymphoma), Granta 519 (mantle cell lymphoma), and WSU-DLCL2 (diffuse large B cell lymphoma) cell lines. The DoHH2 Human EBV-negative B Cell Lymphoma cells were seeded with 5,000 cells/well and grown in RPMI1640 medium containing 20% FBS, and 2mM L-Glutamine. The Granta 519 Human Mantle Cell Lymphoma cells were seeded with 10,000 cells/well and grown in DMEM medium containing 10% FBS, and 2 mM L-Glutamine. The WSU-DLCL2 Human B Cell Lymphoma cells were seeded with 5,000 cells/well and grown in RPMI1640 medium containing 10% FBS, and 2mM L-Glutamine. Specifically, the human tumor cells were placed in a 96-well microculture plate at the appropriate density for 96 hours of total growth time. After 24 hours of incubation in a humidified incubator at 37° C. with 5% CO2 and 95% air, serially diluted test agents in growth medium were added to each well. After 96 total hours of culture in a CO2 incubator, the plates were processed with Cell Titer-Glo (Promega #G7571) according to manufacturer's instructions. Luminescence was detected using a Tecan GENios microplate reader. Percent inhibition of cell growth was calculated relative to untreated control wells. […]

[4] = test system: MV4-11 cells; experiment: Anti-proliferation assay (Cell Titer-Glo) in MV4-11 human leukemia cells; assay type: cell-based
Experimental: The human leukemia cell line MV4-11 cells [biphenotypic B myelomonocytic leukemia, lymphoblast morphology] were placed in a 96-well microculture plate (Costar white, flat bottom #3917) in a total volume of 90 μL/well. After 24 hours of incubation in a humidified incubator at 37° C. with 5% CO2 and 95% air, 10 μL of 10X, serially diluted sodium trans-[tetrachlorobis(1H-indazole)ruthenate(III)] in growth medium was added to each well. After 96 total hours of culture in a CO2 incubator, the plated cells and Cell Titer-Glo (Promega #G7571) reagents were brought to room temperature to equilibrate for 30 minutes. 100 μL of Cell Titer-Glo® reagent was added to each well. The plate was shaken for 2 minutes and then left to equilibrate for 10 minutes before reading luminescence on the Tecan GENios microplate reader. Percent inhibition of cell growth was calculated relative to untreated control wells. All tests were performed in duplicate at each concentration level. The IC50 value for the test agent was estimated using Prism 3.03 by curve-fitting the data using the following four parameter-logistic equation: […]

[5] = test system: DoHH2 cells; experiment: Anti-proliferation assay (Cell Titer-Glo) in DoHH2 follicular lymphoma cells; assay type: cell-based, human; details: 96 total hours of culture, read-out: IC50 in DoHH2 (inhibition of cell growth)
Experimental: as §1

[6] = test system: WSU-DLCL2 cells; experiment: Anti-proliferation assay (Cell Titer-Glo) in WSU-DLCL2 diffuse large B cell lymphoma cells; assay type: cell-based, human; details: 96 total hours of culture, read-out: IC50 in WSU-DLCL2 (inhibition of cell growth)
Experimental: as §1

Nc1ccn([C@@H]2O[C@H](CO)[C@@H](O)[C@@H]2O)c(=O)n1 [Ara-C, cytarabine]
resistance of MV4-11 cells to the drug [1]: resistant

N[C@@H](Cc1ccc(N(CCCl)CCCl)cc1)C(=O)O [melphalan]
resistance of WSU-DLCL2 cells to the drug [2]: resistant

[Cl][Ru-]([Cl])([Cl])[Cl].[Na+].c1ccc2[nH]ncc2c1.c1ccc2[nH]ncc2c1 [sodium trans-[tetrachlorobis(1H-indazole)ruthenate(III)]]
IC50 [3]: 63.6 µM | IC50 ([4]; 96 total hours of culture, compound added after 24 hours, Cell Titer-Glo, read-out: IC50 on MV4-11 (inhibition of cell growth)): 8.53 µM | inhibition of proliferation of MV4-11 cells (FIG. 1), dose-dependent maximum ([4]; exposure time 24 hours, % of control): up to 100% | IC50 [5]: 7.18 µM | IC50 [6]: 25 µM

COc1cccc2c1C(=O)c1c(O)c3c(c(O)c1C2=O)C[C@@](O)(C(=O)CO)C[C@@H]3O[C@H]1C[C@H](N)[C@H](O)[C@H](C)O1 [doxorubicin]
resistance of WSU-DLCL2 cells to the drug [2]: resistant | resistance of MV4-11 cells to the drug [1]: resistant
